{"source": "paper PMC8753592", "about": "“Long-acting capsid inhibitor protects macaques from repeat SHIV challenges” (Nature, 2021)", "key": {"[1]": {"experiment": "Pilot pharmacokinetic study, single subcutaneous administration", "conditions": "male, Indian origin, rhesus monkey, in vivo; for concentration at 0.57 weeks: 0.57 weeks post dose; for concentration at 1 week: 1 week post dose; for concentration at 4 weeks: 4 weeks post dose; for concentration at 8 weeks: 8 weeks post dose; for concentration at 10 weeks: 10 weeks post dose", "experimental": "All study protocols were reviewed and approved by the Covance Laboratories Institutional Animal Care and Use Committee (IACUC).\nRhesus plasma samples were stored frozen at −80 °C. For analysis, the samples were thawed, and a 50-µl aliquot of each sample was treated with 200 µl acetonitrile containing a generic internal small-molecule standard. After precipitation of the protein component, a 100-µl aliquot of the supernatant was transferred to a clean 96-well plate and was mixed with 200 µl water. A 20-μl aliquot of the above solution was then injected into a Q-Exactive high-resolution mass spectrometer (Thermo Scientific) with electrospray ionization in positive mode. Quantification was performed with a Thermo Scientific Xcalibur 4.0.27.19 using accurate masses (<5 parts per million mass error; [M + H]^+ of 958.1853 for GC-CA1 and 758.3270 for the internal standard, respectively)[22],[23]. […] Pharmacokinetic parameters, including the area under the plasma concentration–time curve from time 0 to the last quantifiable time point (AUClast), the area under the plasma concentration–time curve from time 0 to infinity (AUCinf), the maximum concentration (Cmax), the time to reach the observed peak plasma concentration (tmax) and the terminal half-life (t1/2), were determined by non-compartmental analysis using Phoenix WinNonlin 6.4 build 8.1.0.3530 software (Pharsight)."}, "in vitro": {"experiment": "in vitro", "conditions": "rhesus", "experimental": "After a 24-h equilibration period at 37 °C, samples were quenched with 4 volumes of 90% (vol/vol) acetonitrile and 10% (vol/vol) methanol containing internal standard. Then, they were quantified using the AB Sciex API 4000 LC–MS/MS system (GenTech Scientific) with electrospray ionization in positive mode and multiple-reaction monitoring and were analysed using Analyst 1.6.1 software. The fold change value in 100% rhesus plasma was then calculated using the plasma/CCM ratio after correcting for the sample dilution factor and the percentage of free fraction in the matrix."}, "[2]": {"conditions": "ref Yant et al, Nat.Med, 2019;[4]; cited from earlier work"}, "[3]": {"conditions": "ref Yant et al, Nat.Med, 2019;[4], cited from earlier work"}, "HIV-1 isolates": {"system": "HIV-1 isolates", "conditions": "ref Yant et al, Nat.Med, 2019;[4]; read-out: EC50, human PBMCs, HIV-1 isolates; cited from earlier work"}, "[4]": {"conditions": "100 mg/kg, Plasma GS-CA1 level, 100 mg/kg s.c., individual animals, unit inferred"}, "[5]": {"conditions": "300 mg/kg, Plasma GS-CA1 level, 300 mg/kg s.c., individual animals, unit inferred"}}}
{"smiles": "CC(C)(C#Cc1ccc(-c2ccc(Cl)c3c(NS(=O)(=O)C4CC4)nn(CC(F)F)c23)c([C@H](Cc2cc(F)cc(F)c2)NC(=O)Cn2nc(C(F)F)c3c2C(F)(F)[C@@H]2C[C@H]32)n1)S(C)(=O)=O", "note": "[GS-CA1]", "values": [{"measurement": "concentration at 0.57 weeks", "setting": "[1]; [4]", "value": 487, "unit": "nM"}, {"measurement": "concentration at 1 week", "setting": "[1]; [4]", "value": 353, "unit": "nM"}, {"measurement": "concentration at 2 weeks", "setting": "[1]; 100 mg/kg, Plasma GS-CA1 level, 100 mg/kg s.c., 2 weeks post dose, individual animals, unit inferred", "value": 163, "unit": "nM"}, {"measurement": "concentration at 3 weeks", "setting": "[1]; 100 mg/kg, Plasma GS-CA1 level, 100 mg/kg s.c., 3 weeks post dose, individual animals, unit inferred", "value": 114, "unit": "nM"}, {"measurement": "concentration at 4 weeks", "setting": "[1]; [4]", "value": 138, "unit": "nM"}, {"measurement": "concentration at 5 weeks", "setting": "[1]; 100 mg/kg, Plasma GS-CA1 level, 100 mg/kg s.c., 5 weeks post dose, individual animals, unit inferred", "value": 93.4, "unit": "nM"}, {"measurement": "concentration at 6 weeks", "setting": "[1]; 100 mg/kg, Plasma GS-CA1 level, 100 mg/kg s.c., 6 weeks post dose, individual animals, unit inferred", "value": 84.9, "unit": "nM"}, {"measurement": "concentration at 8 weeks", "setting": "[1]; [4]", "value": 36.4, "unit": "nM"}, {"measurement": "concentration at 10 weeks", "setting": "[1]; [4]", "value": 40.7, "unit": "nM"}, {"measurement": "concentration at 12 weeks", "setting": "[1]; 100 mg/kg, Plasma GS-CA1 level, 100 mg/kg s.c., 12 weeks post dose, individual animals, unit inferred", "value": 18, "unit": "nM"}, {"measurement": "concentration at 0.006 weeks", "setting": "[1]; 300 mg/kg, Plasma GS-CA1 level, 300 mg/kg s.c., 0.006 weeks post dose, individual animals, unit not given (Fig. 1b in nM)", "value": 68.8, "unit": "nM"}, {"measurement": "concentration at 0.43 weeks", "setting": "[1]; 300 mg/kg, Plasma GS-CA1 level, 300 mg/kg s.c., 0.43 weeks post dose, individual animals, unit inferred", "value": 2000, "unit": "nM"}, {"measurement": "concentration at 0.57 weeks", "setting": "[1]; [5]", "value": 1920, "unit": "nM"}, {"measurement": "concentration at 1 week", "setting": "[1]; [5]", "value": 1310, "unit": "nM"}, {"measurement": "concentration at 4 weeks", "setting": "[1]; [5]", "value": 338, "unit": "nM"}, {"measurement": "concentration at 8 weeks", "setting": "[1]; [5]", "value": 198, "unit": "nM"}, {"measurement": "concentration at 10 weeks", "setting": "[1]; [5]", "value": 109, "unit": "nM"}, {"measurement": "concentration at 14 weeks", "setting": "[1]; 300 mg/kg, Plasma GS-CA1 level, 300 mg/kg s.c., 14 weeks post dose, individual animals, unit inferred", "value": 43.8, "unit": "nM"}, {"measurement": "concentration at 7 day", "setting": "[1]; plasma drug level, 100 and 300 mg/kg single s.c., by day 7", "value": "400 to 1100", "unit": "nM"}, {"measurement": "AUC(0-inf)", "setting": "[1]; sc, 100 mg/kg", "value": 333, "unit": "µM·h"}, {"measurement": "F (based on AUCinf)", "setting": "[1]; sc, 100 mg/kg", "value": 92, "unit": "%"}, {"measurement": "Tmax", "setting": "[1]; sc, 100 mg/kg", "value": 36, "unit": "h"}, {"measurement": "half-life", "setting": "[1]; sc, 100 mg/kg", "value": 600, "unit": "h"}, {"measurement": "AUC(0-t)", "setting": "[1]; sc, 100 mg/kg, AUC0-24h", "value": 19.3, "unit": "µM·h"}, {"measurement": "AUC(0-t)", "setting": "[1]; sc, 100 mg/kg, AUC0-168h", "value": 147, "unit": "µM·h"}, {"measurement": "AUC(0-t)", "setting": "[1]; sc, 100 mg/kg, AUC0-336h", "value": 198, "unit": "µM·h"}, {"measurement": "AUC(0-t)", "setting": "[1]; sc, 100 mg/kg, AUC0-1008h", "value": 279, "unit": "µM·h"}, {"measurement": "AUC(0-t)", "setting": "[1]; sc, 100 mg/kg, AUC0-1344h", "value": 298, "unit": "µM·h"}, {"measurement": "AUC(0-t)", "setting": "[1]; sc, 100 mg/kg, AUC0-1680h", "value": 310, "unit": "µM·h"}, {"measurement": "AUC(0-inf)", "setting": "[1]; sc, 300 mg/kg", "value": "1120 ± 126", "unit": "µM·h"}, {"measurement": "Cmax", "setting": "[1]; sc, 300 mg/kg", "value": "2710 ± 720", "unit": "nM"}, {"measurement": "F (based on AUCinf)", "setting": "[1]; sc, 300 mg/kg", "value": "104 ± 12", "unit": "%"}, {"measurement": "Tmax", "setting": "[1]; sc, 300 mg/kg", "value": "48 ± 24", "unit": "h"}, {"measurement": "half-life", "setting": "[1]; sc, 300 mg/kg", "value": 557, "unit": "h"}, {"measurement": "AUC(0-t)", "setting": "[1]; sc, 300 mg/kg, AUC0-24h", "value": "25.2 ± 10.2", "unit": "µM·h"}, {"measurement": "AUC(0-t)", "setting": "[1]; sc, 300 mg/kg, AUC0-336h", "value": "434 ± 114", "unit": "µM·h"}, {"measurement": "AUC(0-t)", "setting": "[1]; sc, 300 mg/kg, AUC0-1008h", "value": "819 ± 77", "unit": "µM·h"}, {"measurement": "AUC(0-t)", "setting": "[1]; sc, 300 mg/kg, AUC0-1344h", "value": "936 ± 91", "unit": "µM·h"}, {"measurement": "AUC(0-t)", "setting": "[1]; sc, 300 mg/kg, AUC0-1680h", "value": "1010 ± 109", "unit": "µM·h"}, {"measurement": "recovery at 24 h, 2 μM", "setting": "in vitro", "value": 60, "unit": "%"}, {"measurement": "T1/2, human cryopreserved hepatocytes", "setting": "[2]", "value": 130, "unit": "h"}, {"measurement": "Kinetic solubility at pH 2.0", "setting": "[3]; pH 2.0", "value": "<1, <1 μM"}, {"measurement": "Kinetic solubility at pH 7.4", "setting": "[3]; pH 7.4", "value": "<1, <1 μM"}, {"measurement": "EC50", "setting": "HIV-1 isolates", "value": 130, "unit": "pM"}]}
